Laboratory results published in BindingDB's records for doi:10.1016/j.bmcl.2014.06.001 (Tohoku Pharmaceutical University, 2014).

Assay: Inhibition of Wistar rat intestinal maltase assessed as inhibition of D-glucose release after 30 mins by spectrophotometry

For `OC[C@@H]1N[C@@H](CCCCc2ccc(O)cc2)[C@H](O)[C@H]1O`, the IC50 was 170 nM.
